The results in this text go back to patent US9920039B2, “1,2,4-Oxadiazol compounds active against gram-positive pathogens” (UNIVERSITÀ DEGLI STUDI DI MILANO—BICOCCA, priority 2013, dated 2018).

≈ marks a conversion by molar mass, not a printed value. Bounds are passed on as bounds.

Series [1] concerns MRSA clinical strain 433. The series is described as follows: MIC by broth microdilution (CLSI). The series is classed as cell-based, Staphylococcus aureus. As to conditions: Staphylococcus aureus; MRSA 433; racemic mixture; Table 2; read-out: MIC.
Series [2] relates to S. aureus MU50 (ATCC 700699), methicillin-resistant (MRSA). The series is described as follows: MIC by broth microdilution (CLSI). As to conditions: Staphylococcus aureus, racemic mixture, Table 2, read-out: MIC. The series is classed as cell-based, Staphylococcus aureus.
Series [3] concerns methicillin-susceptible S. aureus (M923). The series is described as follows: MIC by broth microdilution (CLSI). The series is classed as cell-based, Staphylococcus aureus. As to conditions: Staphylococcus aureus; MSSA M923; racemic mixture; Table 2; read-out: MIC.
Series [4] relates to MRSA clinical strain F511. The series is described as follows: MIC by broth microdilution (CLSI). The series is classed as cell-based, Staphylococcus aureus. As to conditions: Staphylococcus aureus, racemic mixture, Table 2, read-out: MIC.
Series [5] deals with HaCaT (human keratinocytes) cells. The series is described as follows: Cell viability, MTT assay. The series is classed as cell-based. As to conditions: P<0.01, FIG. 3. The method, then:
(§1) [17-19] HepG2 and HaCat cells were grown in Dulbecco's modified eagles medium (DMEM) whereas PK15 in DMEM/M199 (1:1). All media were supplemented with 10% heat inactivated foetal bovine serum (FBS), 2 mM L-glutamine, 100 units/mL penicillin and 100 μg/mL streptomycin. Cells were maintained at 37° C. in a 5% CO2 atmosphere. All reagents for cell culture were from Euroclone (Pero, Italy).
(§2) Cell viability was measured by the MTT assay.[20] Briefly, MTT [3-(4,5-Dimethylthiazol-2-yl)-2,5-diphenyltetrazolium bromide] stock solution (5 mg/mL) was added to each well to a final concentration of 1.2 mM, and cells were incubated for 1 hour and 30 minutes at 37° C. After removing MTT solution, the reaction was stopped by adding 90% ethanol. Resuspended cells were centrifuged 10 min at 800×g. The absorbance was measured with the multilabel Victor^3 spectrophotometer (Perkin Elmer, Turku, Finland) at wavelength of 570 nm. Data are means±S.E. of 3 separate experiments performed in triplicate.
(§3) Statistical significance was obtained with Student'st test in comparison with controls *=P≤0.05, **=P≤0.001. Data are means±S.E. of 3 separate experiments performed in triplicate.
(§4) Another control was DMSO used as solvent.

In series [6] the test system is HepG2 (human hepatocellular carcinoma) cells. The series is described as follows: Cell viability, MTT assay. The series is classed as cell-based. As to conditions: FIG. 4. Here is the method: as §1, §2, §3, §4
Series [7] deals with PK15 (porcine kidney epithelial) cells. The series is described as follows: Cell viability, MTT assay. The series is classed as cell-based. As to conditions: 5-400 μg/mL, FIG. 2. The method, then: as §1, §2, §3, §4
In series [8] the test system is Staphylococcus aureus ATCC 29213. The series is described as follows: MIC by broth microdilution (CLSI). The series is classed as cell-based. As to conditions: Staphylococcus aureus, ATCC29213; ATCC 29213; racemic mixture; Table 2; read-out: MIC.

Consider `CC(=S)NCC1CN(c2ccc(-c3nc(C)no3)c(F)c2)C(=O)O1` (racemic) [Compound A4b, 3-(3′-fluoro-4′-(3″-methyl-1,2,4-oxadiazol-5-yl)-phenyl)-5-(N-thioacetylaminomethyl)-oxazolidin-2-one], for which the MIC in series [1] was 0.8 µg/mL (≈ 2.28 µM); in series [2], at most 0.4 µg/mL; in series [3] it was 1.6 µg/mL (≈ 4.57 µM); in series [4], 1.6 µg/mL (≈ 4.57 µM); in series [8], 1.6 µg/mL (≈ 4.57 µM). Moreover, the “concentration reaching statistically significant mortality compared to linezolid” value in series [5] amounted to 400 µg/mL. In series [6], the “concentration from which a reduction in viability was shown” value is given as at least 50 µg/mL. In addition, in series [7], the reduction of viability result is on record as “less than 10%”.
